Results: patent publication US20180186742A1, “PICOLINAMIDES AS FUNGICIDES” (Dow AgroSciences LLC, priority 2017, published 2018)
Read-outs that look alike come from different tables or passages of the source.

How the values were obtained:
Assay type in all cases: in vivo
[1] = system: Parastagonospora nodorum; test: Wheat glume blotch (LEPTNO), disease control on wheat seedlings; settings: 1DP test at 100 ppm, read-out: LEPTNO disease control rating
Method: Technical grades of materials were dissolved in acetone, which were then mixed with nine volumes of water containing 110 ppm Triton X-100. The fungicide solutions were applied onto wheat seedlings using an automated booth sprayer to run-off. All sprayed plants were allowed to air dry prior to further handling. All fungicides were evaluated using the aforementioned method for their activity vs. all target diseases, unless stated otherwise. Wheat leaf blotch and brown rust activity were also evaluated using track spray applications, in which case the fungicides were formulated as EC formulations, containing 0.1% Trycol 5941 in the spray solutions. Wheat plants (variety Yuma) were grown from seed in a greenhouse in 50% mineral soil/50% soil-less Metro mix until the first leaf was fully emerged, with 7-10 seedlings per pot. These plants were inoculated with an aqueous spore suspension of Parastagonospora nodorum 24 hr after fungicide treatments. After inoculation the plants were kept in 100% relative humidity (one day in a dark dew chamber followed by two days in a lighted dew chamber at 20° C.) to permit spores to germinate and infect the leaf. The plants were then transferred to a greenhouse set at 20° C. for disease to develop. Fungicide formulation, application and disease assessment followed the procedures as described in the Example A.

[2] = system: Puccinia triticina; test: Wheat brown rust (PUCCRT), disease control on wheat seedlings; settings: low volume application at 121.5 g/H
Outline: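 Compounds in acetone, diluted with nine volumes of water containing 110 ppm Triton X-100, sprayed to run-off on first-leaf Yuma wheat seedlings; track-spray tests used EC formulations with 0.1% Trycol 5941. Puccinia triticina spores applied before or after treatment. Overnight dark dew room at 22° C, 100% humidity, then greenhouse at 24° C.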

[3] = system: Magnaporthe grisea; Anamorph: Pyricularia oryzae; test: whole plant or invertebrate; settings: 24 h, read-out: PYRIOR Disease Control
[4] = system: Glomerella lagenarium; Anamorph: Colletotrichum lagenarium; test: Cucumber anthracnose (COLLLA), disease control on cucumber seedlings; settings: Colletotrichum orbiculare, 1DP test at 100 ppm, read-out: COLLLA disease control rating
Method: Technical grades of materials were dissolved in acetone, which were then mixed with nine volumes of water containing 110 ppm Triton X-100. The fungicide solutions were applied onto wheat seedlings using an automated booth sprayer to run-off. All sprayed plants were allowed to air dry prior to further handling. All fungicides were evaluated using the aforementioned method for their activity vs. all target diseases, unless stated otherwise. Wheat leaf blotch and brown rust activity were also evaluated using track spray applications, in which case the fungicides were formulated as EC formulations, containing 0.1% Trycol 5941 in the spray solutions. Cucumber seedlings (variety Bush Pickle) were propagated in soil-less Metro mix, with each pot having one plant, and used in the test when 12 to 14 days old. Test plants were inoculated with an aqueous spore suspension of Colletotrichum lagenarium 24 hr after fungicide treatments. After inoculation the plants were kept in a dew room at 22° C. with 100% relative humidity for 48 hr to permit spores to germinate and infect the leaf. The plants were then transferred to a growth room set at 22° C. for disease to develop. Fungicide formulation, application and disease assessment on the sprayed leaves followed the procedures as described in the Example A.

[5] = system: Rhyncosporium secalis; test: Barley scald (RHYNSE), disease control on barley seedlings; settings: Hordeum vulgare, 24 h, 1DP (1 Day Protectant) test at 100 ppm
Method: Technical grades of materials were dissolved in acetone, which were then mixed with nine volumes of water containing 110 ppm Triton X-100. The fungicide solutions were applied onto wheat seedlings using an automated booth sprayer to run-off. All sprayed plants were allowed to air dry prior to further handling. All fungicides were evaluated using the aforementioned method for their activity vs. all target diseases, unless stated otherwise. Wheat leaf blotch and brown rust activity were also evaluated using track spray applications, in which case the fungicides were formulated as EC formulations, containing 0.1% Trycol 5941 in the spray solutions. Barley seedlings (variety Harrington) were propagated in soil-less Metro mix, with each pot having 8 to 12 plants, and used in the test when first leaf was fully emerged. Test plants were inoculated by an aqueous spore suspension of Rhyncosporium secalis 24 hr after fungicide treatments. After inoculation the plants were kept in a dew room at 20° C. with 100% relative humidity for 48 hr. The plants were then transferred to a greenhouse set at 20° C. for disease to develop. Fungicide formulation, application and disease assessment on the sprayed leaves followed the procedures as described in the Example A.

[6] = system: Phakopsora pachyrhizi; test: Asian soybean rust (PHAKPA), disease control on soybean seedlings; settings: High volume application at 25 ppm
Outline: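 Two-week-old Williams 82 soybean seedlings were sprayed to run-off with compound in acetone/water (1:9) containing 0.011% Tween 20. Inoculation was 3 days before (curative) or 1 day after (protectant) treatment, followed by 24 h dark dew at 22 °C, 100% RH, then 23 °C; disease severity scored on sprayed leaves.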

[7] = 24 h, 1 Day Protectant, read-out: PUCCRT disease control, 1DP, LV activity
[8] = 72 h, 3 Day Curative, read-out: PUCCRT disease control, 3DC, LV activity
[9] = 24 h, 1 Day Protectant, read-out: PHAKPA 1DP disease control rating
[10] = 72 h, 3 Day Curative, read-out: PHAKPA 3DC disease control rating

COc1ccnc(C(=O)N[C@@H](C)C(=O)O[C@@H](C)[C@H](c2ccc(F)cc2C)C(C)C)c1OC(C)=O [Compound 186] gave a pest or weed control at 100 ppm [1] of over 80%, a pest or weed control at 121.5 g/ha [2, 7] of over 80% and a pest or weed control at 121.5 g/ha [2, 8] of over 80%. It also gave a pest or weed control at 100 ppm [3] of over 80%, a pest or weed control at 100 ppm [4] of under 0% and a pest or weed control at 100 ppm [5] of under 80%. For the same compound, the pest or weed control at 25 ppm [6, 9] was over 80% and the pest or weed control at 25 ppm [6, 10] was over 80%.
COc1cc[n+]([O-])c(C(=O)N[C@@H](C)C(=O)O[C@@H](C)[C@H](c2ccc(F)cc2C)C(C)C)c1O [Compound 218] showed a pest or weed control at 100 ppm [1] of over 80%, a pest or weed control at 121.5 g/ha [2, 7] of over 80% and a pest or weed control at 121.5 g/ha [2, 8] of under 80%. For the same compound, the pest or weed control at 100 ppm [3] was over 80%, the pest or weed control at 100 ppm [4] was under 80% and the pest or weed control at 100 ppm [5] was under 80%. For the same compound, the pest or weed control at 25 ppm [6, 9] was under 80% and the pest or weed control at 25 ppm [6, 10] was under 80%.
COc1ccnc(C(=O)N[C@@H](C)C(=O)O[C@@H](C)[C@H](c2ccc(F)cc2C)C(C)C)c1OC(=O)C1CCCC1 [Compound 354] gave a pest or weed control at 100 ppm [1] of over 80%, a pest or weed control at 121.5 g/ha [2, 7] of over 80% and a pest or weed control at 121.5 g/ha [2, 8] of under 80%. For the same compound, the pest or weed control at 100 ppm [3] was under 80%, the pest or weed control at 100 ppm [4] was over 80% and the pest or weed control at 100 ppm [5] was under 80%. It also gave a pest or weed control at 25 ppm [6, 9] of over 80% and a pest or weed control at 25 ppm [6, 10] of over 80%.
